The results in this text go back to patent publication US12570675B2, “Boronic acid compounds” (LG CHEM, LTD., priority 2020, dated 2026).

The target in experiment [1] is Proteasome chymotrypsin-like activity (S26 protein from RPMI8226 cells) (Homo sapiens, UniProt P28074). It is filed as biochemical. As to conditions: S26 protein from RPMI8226 cell extract 2 ug/well, substrate 20 uM, 37° C., 90 minutes; read-out: Proteasome chymotrypsin-like activity inhibition IC50. The essentials:
(§1)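 S26 proteasome fraction from homogenized RPMI8226 myeloma cells in 20 mM Tris-HCl pH 8.0 (2 ug extract/well) incubated 90 min at 37 °C with compound serially diluted from 10 uM (0.5% DMSO).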

In experiment [2] the target is Proteasome caspase-like activity (S26 protein from RPMI8226 cells) (Homo sapiens (Human), UniProt P28072). Kind of experiment: Proteasome caspase-like activity inhibition (Z-Leu-Leu-Glu-AMC fluorogenic substrate, RPMI8226 cell extract). Type of experiment: biochemical. The note with it: S26 protein from RPMI8226 cell extract 2 ug/well, substrate 20 uM, 37° C., 90 minutes. An outline of the steps:
as §1

The IC50 is the midpoint of a concentration-inhibition curve.

Chain of Proteasome caspase-like activity (S26 protein from RPMI8226 cells) (P28072 whole entry): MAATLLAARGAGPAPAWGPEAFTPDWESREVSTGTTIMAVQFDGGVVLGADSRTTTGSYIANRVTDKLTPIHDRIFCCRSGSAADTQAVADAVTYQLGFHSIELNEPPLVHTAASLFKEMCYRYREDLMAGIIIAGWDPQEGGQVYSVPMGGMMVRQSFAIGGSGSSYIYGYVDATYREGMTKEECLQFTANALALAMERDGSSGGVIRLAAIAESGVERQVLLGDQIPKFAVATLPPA
Chain of Proteasome chymotrypsin-like activity (S26 protein from RPMI8226 cells) (P28074 60-263 limits assumed): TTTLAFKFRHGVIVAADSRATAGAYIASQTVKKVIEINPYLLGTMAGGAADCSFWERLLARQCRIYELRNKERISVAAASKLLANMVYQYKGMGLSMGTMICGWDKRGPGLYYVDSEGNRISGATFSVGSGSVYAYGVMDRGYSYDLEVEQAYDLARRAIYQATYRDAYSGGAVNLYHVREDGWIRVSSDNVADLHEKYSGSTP

On to `CC(C)C[C@H](NC(=O)C1(Cc2ccccc2)CC(CNC(=O)c2cccc(C(F)(F)F)n2)=NO1)B(O)O` (stereo partly drawn) [Example 186, ((1R)-1-(5-benzyl-3-((6-(trifluoromethyl)picolinamido)methyl)-4,5-dihydroisoxazol-5-carboxamido)-3-methylbutyl)boronic acid], for which the IC50 in experiment [1] was below 10 nM; in experiment [2], above 1000 nM.
For `Cc1nc(C)c(C(=O)NCC2=NOC(Cc3ccccc3)(C(=O)N[C@@H](CC(C)C)B(O)O)C2)s1` (stereo partly drawn) [Example 130, ((1R)-1-(5-benzyl-3-((2,4-dimethylthiazol-5-carboxamido)methyl)-4,5-dihydroisoxazol-5-carboxamido)-3-methylbutyl)boronic acid], the IC50 in experiment [1] is below 10 nM; in experiment [2], above 500 nM.
For `CC(C)C[C@H](NC(=O)C1(Cc2ccccc2)CC(CNC(=O)c2cnc3c(ccn3C(C)C)c2)=NO1)B(O)O` (stereo partly drawn) [Example 212, ((1R)-1-(5-benzyl-3-((1-isopropyl-1H-pyrrolo[2,3-b]pyridin-5-carboxamido)methyl)-4,5-dihydroisoxazol-5-carboxamido)-3-methylbutyl)boronic acid], the IC50 was below 10 nM in experiment [1] and above 100 nM in experiment [2].
`CC(C)C[C@H](NC(=O)C1(Cc2ccccc2)CC([C@H](C)NC(=O)c2nccc3ccccc23)=NO1)B(O)O` (stereo partly drawn) [Example 145, ((1R)-1-(5-benzyl-3-((S)-1-(isoquinolin-1-carboxamido)ethyl)-4,5-dihydroisoxazol-5-carboxamido)-3-methylbutyl)boronic acid]: the IC50 in experiment [1] is below 10 nM; in experiment [2], above 2500 nM.
On to `CC(C)C[C@H](NC(=O)C1(Cc2cccc(F)c2)CC(CNC(=O)c2nccc3ccccc23)=NO1)B(O)O` (stereo partly drawn) [Example 187, ((1R)-1-(5-(3-fluorobenzyl)-3-((isoquinolin-1-carboxamido)methyl)-4,5-dihydroisoxazol-5-carboxamido)-3-methylbutyl)boronic acid], for which the IC50 is below 10 nM in experiment [1] and above 500 nM in experiment [2].
As for `CC(C)C[C@H](NC(=O)C1CC(COCc2ccccc2)=NO1)B(O)O` (stereo partly shown) [Example 252], the IC50 in experiment [1] was below 100 nM; in experiment [2], above 500 nM.
Take `CC(C)C[C@H](NC(=O)C1CC(CNC(=O)c2cccc3ccccc23)=NO1)B(O)O` (stereo partly drawn) [Example 64, ((1R)-1-(3-((1-naphthamido)methyl)-4,5-dihydroisoxazol-5-carboxamido)-3-methylbutyl)boronic acid]: the IC50 in experiment [1] was below 10 nM; in experiment [2], above 250 nM.
With `Cc1cc(C(=O)NCC2=NOC(Cc3ccccc3)(C(=O)N[C@@H](CC(C)C)B(O)O)C2)n(C(C)C)n1` (stereo partly drawn) [Example 190, ((1R)-1-(5-benzyl-3-((1-isopropyl-3-methyl-1H-pyrazol-5-carboxamido)methyl)-4,5-dihydroisoxazol-5-carboxamido)-3-methylbutyl)boronic acid], the half-maximal inhibitory concentration (IC50) is below 10 nM in experiment [1] and above 2500 nM in experiment [2].
For `CCCC1(C(=O)N[C@@H](CC(C)C)B(O)O)CC(CNC(=O)c2cc(Cl)ccc2Cl)=NO1` (stereo partly drawn) [Example 88, ((1R)-1-(3-((2,5-dichlorobenzamido)methyl)-5-propyl-4,5-dihydroisoxazol-5-carboxamido)-3-methylbutyl)boronic acid], in that order: below 25 nM and above 2500 nM.
Consider `CC(C)C[C@H](NC(=O)C1(Cc2ccccc2)CC(CNC(=O)c2cccc3c2ccn3C(C)C)=NO1)B(O)O` (stereo partly drawn) [Example 134, ((1R)-1-(5-benzyl-3-((1-isopropyl-1H-indol-4-carboxamido)methyl)-4,5-dihydroisoxazol-5-carboxamido)-3-methylbutyl)boronic acid], for which the IC50 in experiment [1] was below 10 nM; in experiment [2], above 500 nM.
With `CC(C)C[C@H](NC(=O)C1CC([C@@H](NC(=O)c2cc(Cl)ccc2Cl)C(C)C)=NO1)B(O)O` (stereo partly drawn) [Example 72, ((1R)-1-(3-((S)-1-(2,5-dichlorobenzamido)-2-methylpropyl)-4,5-dihydroisoxazol-5-carboxamido)-3-methylbutyl)boronic acid], the figures for the IC50 in experiment [1] and in experiment [2] were below 10 nM and above 100 nM, respectively.
